Drawing on ChEMBL document CHEMBL6103613 (J Med Chem, 2025), this text covers MIC, HC5 and selectivity ratio for nine compounds.

≈ marks a conversion by molar mass, not a printed value. A value given as a limit tells only on which side of the number the result lay.

In data set [1] the test system is Staphylococcus aureus. The data set is described as follows: Antimicrobial activity against Staphylococcus aureus ATCC 25923 assessed as inhibition of visible bacterial growth incubated for 18 hrs by CLSI based analysis. The format is functional.
The subject of another data set is Enterococcus gallinarum. The data set is described as follows: Antimicrobial activity against Enterococcus gallinarum ATCC 49573 assessed as inhibition of visible bacterial growth incubated for 18 hrs by CLSI based analysis. The format is functional.
For a further data set, the system named is Bacillus subtilis. The data set is described as follows: Antimicrobial activity against Bacillus subtilis ATCC 23875 assessed as inhibition of visible bacterial growth incubated for 18 hrs by CLSI based analysis. The format is functional.
Data set [2] has as its system Staphylococcus aureus. The data set is described as follows: Antimicrobial activity against Staphylococcus aureus assessed as inhibition of visible bacterial growth incubated for 18 hrs by CLSI based analysis. The format is functional.
Data set [3] has as its system Staphylococcus aureus. The data set is described as follows: Antimicrobial activity against methicillin-resistant Staphylococcus aureus clinical isolate 4 assessed as inhibition of visible bacterial growth incubated for 18 hrs by CLSI based analysis. The format is functional.
Data set [4] has as its system Staphylococcus aureus. The data set is described as follows: Antimicrobial activity against methicillin-resistant Staphylococcus aureus clinical isolate 3 assessed as inhibition of visible bacterial growth incubated for 18 hrs by CLSI based analysis. The format is functional.
In a further data set the test system is Enterococcus faecalis. The data set is described as follows: Antimicrobial activity against Enterococcus faecalis ATCC 19433 assessed as inhibition of visible bacterial growth incubated for 18 hrs by CLSI based analysis. The format is functional.
Another data set concerns Escherichia coli. The data set is described as follows: Antimicrobial activity against Escherichia coli assessed as inhibition of visible bacterial growth incubated for 18 hrs by CLSI based analysis. The format is functional.
Data set [5] concerns Staphylococcus aureus. The data set is described as follows: Antimicrobial activity against methicillin-resistant Staphylococcus aureus ATCC 43300 assessed as inhibition of visible bacterial growth incubated for 18 hrs by CLSI based analysis. The format is functional.
The next data set concerns Candida albicans. As to the kind of experiment: Antifungal activity against Candida albicans assessed as reduction in fungal growth incubated for 18 hrs by CLSI based analysis. The format is functional.
In data set [6] the test system is Staphylococcus epidermidis. As to the kind of experiment: Antimicrobial activity against Staphylococcus epidermidis ATCC 12228 assessed as inhibition of visible bacterial growth incubated for 18 hrs by CLSI based analysis. The format is functional.
In a further data set the test system is Enterococcus faecium. As to the kind of experiment: Antimicrobial activity against vancomycin-resistant Enterococcus faecium assessed as inhibition of visible bacterial growth incubated for 18 hrs by CLSI based analysis. The format is functional.
For data set [7], the system named is Staphylococcus aureus. The data set is described as follows: Antimicrobial activity against methicillin-resistant Staphylococcus aureus clinical isolate 2 assessed as inhibition of visible bacterial growth incubated for 18 hrs by CLSI based analysis. The format is functional.
Data set [8] in a line: Hemolytic activity against mouse Red blood cell incubated for 1 hr. As to conditions: erythrocyte. The format is toxicity, cell-based.
The nature of data set [9]: Therapeutic index, ratio of HC5 for hemolytic activity in mouse Red blood cell to MIC for antimicrobial activity against Staphylococcus aureus ATCC 25923 assessed as inhibition of visible bacterial growth. The note with it: red blood cells, read-out: TI. The format is toxicity, cell-based, RBC.

Take `C#CC[C@H]1NC(=O)[C@@H]2CSC(N2)[C@H](C(C)C)NC(=O)[C@@H](C(C)C)NC(=O)[C@H](C(C)C)NC(=O)[C@@H](CCCCN)NC(=O)[C@H](Cc2c(C(c3ccccc3)(c3ccccc3)c3ccccc3)[nH]c3ccccc23)NC1=O`: the MIC was 6.25 µg/mL (≈ 6.03 µM) in the data set with Staphylococcus aureus [1]; 12.5 µg/mL (≈ 12.1 µM) with Enterococcus gallinarum; 6.25 µg/mL (≈ 6.03 µM) in the data set on Bacillus subtilis; 3.13 µg/mL (≈ 3.02 µM) in the data set on Staphylococcus aureus [2]; 6.25 µg/mL (≈ 6.03 µM) in the data set with Staphylococcus aureus [3]; 12.5 µg/mL (≈ 12.1 µM) in the data set on Staphylococcus aureus [4]. Further, the MIC in the data set with Enterococcus faecalis amounted to 25 µg/mL (≈ 24.1 µM); in the data set with Escherichia coli, 3.13 µg/mL (≈ 3.02 µM); with Staphylococcus aureus [5], 6.25 µg/mL (≈ 6.03 µM); in the data set on Candida albicans it was 3.13 µg/mL (≈ 3.02 µM); in [6], 6.25 µg/mL (≈ 6.03 µM); with Enterococcus faecium, 25 µg/mL (≈ 24.1 µM). For the same compound, in the data set with Staphylococcus aureus [7], the MIC came to 6.25 µg/mL (≈ 6.03 µM).

For the compound `CC(C)C[C@H]1NC(=O)[C@H](Cc2c(C(c3ccccc3)c3ccccc3)[nH]c3ccccc23)NC(=O)[C@@H](CCCCN)NC(=O)[C@@H]2CSC(N2)[C@H](C(C)C)NC(=O)[C@@H](C(C)C)NC(=O)[C@H](C(C)C)NC1=O`, the MIC came out at 25 µg/mL (≈ 25.6 µM) in the data set with Staphylococcus aureus [1]; 50 µg/mL (≈ 51.1 µM) with Enterococcus gallinarum; 25 µg/mL (≈ 25.6 µM) with Bacillus subtilis; 3.13 µg/mL (≈ 3.2 µM) with Staphylococcus aureus [2]; 25 µg/mL (≈ 25.6 µM) in the data set on Staphylococcus aureus [3]; 25 µg/mL (≈ 25.6 µM) with Staphylococcus aureus [4]. In addition, the MIC is 25 µg/mL (≈ 25.6 µM) in the data set on Enterococcus faecalis; 3.13 µg/mL (≈ 3.2 µM) in the data set with Escherichia coli; 25 µg/mL (≈ 25.6 µM) with Staphylococcus aureus [5]; 3.13 µg/mL (≈ 3.2 µM) with Candida albicans; 25 µg/mL (≈ 25.6 µM) in data set [6]; 50 µg/mL (≈ 51.1 µM) with Enterococcus faecium. In addition, the MIC in the data set with Staphylococcus aureus [7] is 25 µg/mL (≈ 25.6 µM). The HC5 in [8] was greater than 100 µg/mL. Further, the selectivity ratio in data set [9] was greater than 4.

Consider `CC(C)C[C@H]1NC(=O)[C@H](Cc2c(C(c3ccccc3)c3ccccc3)[nH]c3ccccc23)NC(=O)[C@@H](C(C)C)NC(=O)[C@@H]2CSC(N2)[C@H](C(C)C)NC(=O)[C@@H](C(C)C)NC(=O)[C@H](CCCCN)NC1=O`, for which the MIC in the data set with Staphylococcus aureus [1] came to 25 µg/mL (≈ 25.6 µM); in the data set with Enterococcus gallinarum, 50 µg/mL (≈ 51.1 µM); in the data set on Bacillus subtilis it was 12.5 µg/mL (≈ 12.8 µM); in the data set with Staphylococcus aureus [2], 3.13 µg/mL (≈ 3.2 µM); in the data set on Staphylococcus aureus [3] it was 12.5 µg/mL (≈ 12.8 µM); with Staphylococcus aureus [4], 25 µg/mL (≈ 25.6 µM). Further, the MIC was found to be 50 µg/mL (≈ 51.1 µM) with Enterococcus faecalis; 3.13 µg/mL (≈ 3.2 µM) in the data set with Escherichia coli; 25 µg/mL (≈ 25.6 µM) in the data set with Staphylococcus aureus [5]; 3.13 µg/mL (≈ 3.2 µM) with Candida albicans; 25 µg/mL (≈ 25.6 µM) in data set [6]; 50 µg/mL (≈ 51.1 µM) in the data set with Enterococcus faecium. The MIC in the data set with Staphylococcus aureus [7] amounted to 25 µg/mL (≈ 25.6 µM). The compound also displayed an HC5 in [8] of 64.74 µg/mL. Besides, the selectivity ratio in data set [9] worked out at 2.59.

With `CC(C)C[C@H]1NC(=O)[C@H](Cc2c(C(c3ccccc3)(c3ccccc3)c3ccccc3)[nH]c3ccccc23)NC(=O)[C@@H](C(C)C)NC(=O)[C@@H]2CSC(N2)[C@H](C(C)C)NC(=O)[C@@H](C(C)C)NC(=O)[C@H](C(C)C)NC1=O`, the MIC in the data set with Staphylococcus aureus [1], in the data set with Enterococcus gallinarum, in the data set on Bacillus subtilis, with Staphylococcus aureus [3], with Staphylococcus aureus [4] and with Enterococcus faecalis was greater than 50 µg/mL each time. Besides, the MIC (with Staphylococcus aureus [5]; in data set [6]; in the data set with Enterococcus faecium; with Staphylococcus aureus [7]) was greater than 50 µg/mL throughout.

As to `CC(C)C[C@H]1NC(=O)[C@H](Cc2c(C(c3ccccc3)c3ccccc3)[nH]c3ccccc23)NC(=O)[C@@H](C(C)C)NC(=O)[C@@H]2CSC(N2)[C@H](C(C)C)NC(=O)[C@@H](C(C)C)NC(=O)[C@H](C(C)C)NC1=O`, the MIC in the data set on Staphylococcus aureus [1], in the data set with Enterococcus gallinarum, with Bacillus subtilis, with Staphylococcus aureus [3], in the data set with Staphylococcus aureus [4] and with Enterococcus faecalis was greater than 50 µg/mL throughout. Moreover, the MIC (in the data set on Staphylococcus aureus [5]; in data set [6]; in the data set on Enterococcus faecium; with Staphylococcus aureus [7]) was greater than 50 µg/mL in each case.

Consider `CC(C)[C@@H]1NC(=O)[C@@H](C(C)C)NC(=O)[C@H](C(C)C)NC(=O)[C@@H](CCCCN)NC(=O)[C@H](Cc2c(C(c3ccccc3)c3ccccc3)[nH]c3ccccc23)NC(=O)[C@@H](C(C)C)NC(=O)[C@@H]2CSC1N2`, for which the MIC with Staphylococcus aureus [1] turned out to be 12.5 µg/mL (≈ 13 µM); in the data set with Enterococcus gallinarum it was 25 µg/mL (≈ 25.9 µM); in the data set with Bacillus subtilis, 6.25 µg/mL (≈ 6.48 µM); with Staphylococcus aureus [2] it was 3.13 µg/mL (≈ 3.25 µM); in the data set on Staphylococcus aureus [3] it was 12.5 µg/mL (≈ 13 µM); in the data set with Staphylococcus aureus [4], 12.5 µg/mL (≈ 13 µM). For the same compound, the minimum inhibitory concentration (MIC) with Enterococcus faecalis came out at 50 µg/mL (≈ 51.9 µM); with Escherichia coli, 3.13 µg/mL (≈ 3.25 µM); in the data set with Staphylococcus aureus [5], 12.5 µg/mL (≈ 13 µM); with Candida albicans it was 3.13 µg/mL (≈ 3.25 µM); in data set [6], 6.25 µg/mL (≈ 6.48 µM); in the data set with Enterococcus faecium, 50 µg/mL (≈ 51.9 µM). Moreover, the MIC in the data set on Staphylococcus aureus [7] came out at 12.5 µg/mL (≈ 13 µM). In [8], this compound had an HC5 of 74.17 µg/mL. In data set [9], the selectivity ratio is 5.93.

On to `CC(C)C[C@H]1NC(=O)[C@H](Cc2c(C(c3ccccc3)(c3ccccc3)c3ccccc3)[nH]c3ccccc23)NC(=O)[C@@H](C(C)C)NC(=O)[C@@H]2CSC(N2)[C@H](C(C)C)NC(=O)[C@@H](C(C)C)NC(=O)[C@H](CCCCN)NC1=O`, for which the MIC in the data set with Staphylococcus aureus [1] turned out to be 6.25 µg/mL (≈ 5.93 µM); in the data set with Enterococcus gallinarum, 12.5 µg/mL (≈ 11.9 µM); with Bacillus subtilis it was 6.25 µg/mL (≈ 5.93 µM); in the data set on Staphylococcus aureus [2], 3.13 µg/mL (≈ 2.97 µM); in the data set on Staphylococcus aureus [3], 6.25 µg/mL (≈ 5.93 µM); in the data set on Staphylococcus aureus [4], 6.25 µg/mL (≈ 5.93 µM). Besides, the MIC came to 12.5 µg/mL (≈ 11.9 µM) in the data set with Enterococcus faecalis; 3.13 µg/mL (≈ 2.97 µM) in the data set on Escherichia coli; 6.25 µg/mL (≈ 5.93 µM) in the data set on Staphylococcus aureus [5]; 3.13 µg/mL (≈ 2.97 µM) in the data set with Candida albicans; 6.25 µg/mL (≈ 5.93 µM) in [6]; 12.5 µg/mL (≈ 11.9 µM) with Enterococcus faecium. Besides, the MIC in the data set with Staphylococcus aureus [7] came out at 6.25 µg/mL (≈ 5.93 µM). For the same compound, the HC5 in data set [8] turned out to be 68.73 µg/mL. Also, the selectivity ratio in [9] is 11.

With `CC(C)C[C@H]1NC(=O)[C@H](Cc2c[nH]c3ccccc23)NC(=O)[C@@H](C(C)C)NC(=O)[C@@H]2CSC(N2)[C@H](C(C)C)NC(=O)[C@@H](CCCCN)NC(=O)[C@H](C(C)C)NC1=O`, the MIC in the data set with Staphylococcus aureus [1], in the data set on Enterococcus gallinarum, in the data set with Bacillus subtilis, with Staphylococcus aureus [3], in the data set with Staphylococcus aureus [4] and in the data set on Enterococcus faecalis was greater than 50 µg/mL each time. In addition, the MIC (in the data set on Staphylococcus aureus [5]; in [6]; with Enterococcus faecium; in the data set with Staphylococcus aureus [7]) was greater than 50 µg/mL throughout.

As to `CC(C)C[C@H]1NC(=O)[C@H](Cc2c(C(c3ccccc3)c3ccccc3)[nH]c3ccccc23)NC(=O)[C@@H](C(C)C)NC(=O)[C@@H]2CSC(N2)[C@H](C(C)C)NC(=O)[C@@H](CCCCN)NC(=O)[C@H](C(C)C)NC1=O`, the MIC was found to be 12.5 µg/mL (≈ 12.8 µM) with Staphylococcus aureus [1]; 25 µg/mL (≈ 25.6 µM) in the data set with Enterococcus gallinarum; 6.25 µg/mL (≈ 6.39 µM) with Bacillus subtilis; 3.13 µg/mL (≈ 3.2 µM) with Staphylococcus aureus [2]; 12.5 µg/mL (≈ 12.8 µM) in the data set with Staphylococcus aureus [3]; 12.5 µg/mL (≈ 12.8 µM) in the data set with Staphylococcus aureus [4]. The MIC with Enterococcus faecalis worked out at 25 µg/mL (≈ 25.6 µM); with Escherichia coli it was 3.13 µg/mL (≈ 3.2 µM); in the data set on Staphylococcus aureus [5], 12.5 µg/mL (≈ 12.8 µM); in the data set on Candida albicans it was 3.13 µg/mL (≈ 3.2 µM); in data set [6], 12.5 µg/mL (≈ 12.8 µM); in the data set with Enterococcus faecium it was 25 µg/mL (≈ 25.6 µM). Also, the MIC in the data set on Staphylococcus aureus [7] is 12.5 µg/mL (≈ 12.8 µM). For the same compound, in [8], the HC5 came out at 43.53 µg/mL. Further, in data set [9], the selectivity ratio worked out at 3.48.
